PubChem BioAssay (NCI)
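Dose response: 5 concentrations. Exposure: 48 h. Format: 96-well plates. Endpoint: linear interpolation; highest concentration if not reached. Abbreviation: GI50, concentration required for 50% inhibition of growth. TGI is the concentration that stops growth completely.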

Columns and labels:
Assay in all cases: NCI anticancer screen, dose series, 48 h
CCRF-CEM leukemia = tested on: CCRF-CEM leukemia
NCI-H23 lung = tested on: NCI-H23 lung
SF-295 CNS = tested on: SF-295 CNS
OVCAR-5 ovarian = tested on: OVCAR-5 ovarian
COLO 205 colon = tested on: COLO 205 colon
CAKI-1 renal = tested on: CAKI-1 renal
K-562 leukemia = tested on: K-562 leukemia
SF-268 CNS = tested on: SF-268 CNS
IGROV1 ovarian = tested on: IGROV1 ovarian
MOLT-4 leukemia = tested on: MOLT-4 leukemia

SMILES	TGI (CCRF-CEM leukemia) [µM]	TGI (NCI-H23 lung) [µM]	TGI (SF-295 CNS) [µM]	TGI (OVCAR-5 ovarian) [µM]	TGI (COLO 205 colon) [µM]	TGI (CAKI-1 renal) [µM]	TGI (K-562 leukemia) [µM]	TGI (SF-268 CNS) [µM]	TGI (IGROV1 ovarian) [µM]	TGI (MOLT-4 leukemia) [µM]	GI50 (CCRF-CEM leukemia) [µM]	GI50 (NCI-H23 lung) [µM]	GI50 (SF-295 CNS) [µM]	GI50 (OVCAR-5 ovarian) [µM]	GI50 (COLO 205 colon) [µM]	GI50 (CAKI-1 renal) [µM]	GI50 (K-562 leukemia) [µM]	GI50 (SF-268 CNS) [µM]	GI50 (IGROV1 ovarian) [µM]
CC1=C(O)C2=C(C(=O)C1=O)[C@@H](C)CC[C@@H]2[C@@H](C)C/C=C/C(C)(C)O	> 100	> 100	> 100	> 100	> 100	> 100	> 100	> 100	> 100	93.2									
c1cnc2c(c1)ccc1cccnc12	5.5	> 100	> 100	> 100	> 83.3	27.3	> 52.7	> 100	> 100	8.37									
c1ccc(-c2nc(N3CCNCC3)c3oc(-c4ccccc4)nc3n2)cc1	4.08	3.39	3.22	3.08	4.88	3.18	2.35	3.46	3.22		1.63	1.76	1.75	1.69	2.14	1.66	0.428	1.73	1.69
Cn1c(-c2ccccc2)cc(-c2cccs2)c1-c1cccs1	> 100	> 100	> 100	> 100	> 100	> 100	> 100	> 100	> 100	> 100									
CCN1CCC(O)(/C=C/c2ccccc2C)C(C(=O)/C=C/c2ccccc2C)C1 (configuration not stated)	4.85	4.11	6.68	3.99	3.13	3.21	> 100	14	14.5	6.12									
COc1ccc(Oc2cccc(C3C4C(=O)N(c5ccc(C)c(Cl)c5)C(=O)C4ON3C(C(N)=O)c3ccccc3)c2)cc1 (configuration not stated)	> 50	20.2	> 50	> 50	42.6	> 50	> 50	> 50	> 50	43.4									
CC12C=CC(=O)C=C1CCC1C3CCC(O)(C(=O)CO)C3(C)CC(O)C12F (configuration not stated)	> 100	> 100	> 100	> 100	> 100	> 100	> 100	> 100	> 100	> 100									
COC(=O)c1c(C)n([O-])c2cc(Cl)c(Cl)cc2[n+]1=O	42.3	> 100	> 100	> 100	25.8	61	> 100	> 100	19.9	84.5									
CCOC(=O)c1c(C)n(-c2ccc(Cl)cc2)c2c1cc(O)c1[nH]c3c(c12)CCCC3	> 100	> 100	> 100	> 100	> 100	> 100	> 100	> 100	> 100	> 100									
CCCC1CCC(=C2C(=O)CCC2=O)O1 (configuration not stated)	> 100	> 100	> 100	> 100	> 100	> 100	> 100	> 100	> 100	> 100									
CN1C(c2ccccc2)CC(=O)C(N)C1c1ccccc1 (configuration not stated)	66	> 100	> 100	> 70.8	32.5	> 75.2	> 67.6	> 100	> 100	> 58.8									
Nc1nc(O)c2ncn([C@H]3CC[C@@H](CO)O3)c2n1	> 100	> 100	> 100	> 100	> 100	> 100	> 100		> 100	> 100									
